According to patent publication US9456971B2, “Moisturizer and cosmetic agent containing same” (AJINOMOTO CO., INC., priority 2012, dated 2016):

Legend:
Format in all cases: physicochemical
[1] = Stability against decomposition (acceleration test, HPLC); conditions: 30.0 wt % in water, 70° C. for 22 days
Method: Solutions of the compound of Synthetic Example 2 (decanoyl proline Na, 30.0 wt %) in water with or without addition of etidronate to 0.1 wt % were prepared, and they were subjected to an acceleration test at 70° C. for 22 days. The decomposition rate of the compound of Synthetic Example 2 in each composition was measured using HPLC (20A manufactured by Shimadzu Corporation).

[2] = Evaluation of moisturizer: hygroscopicity; conditions: A(%)=([2]−[1])/[1]×100; vacuum-dried sample allowed to absorb moisture at 65% RH, 25° C. for 14 days
Method: (§1) To study the hygroscopicity and water retention ability of moisturizers, the following experiment was performed.
Decanoyl proline sodium obtained in Synthetic Example 2, betaine (“aminocoat” manufactured by Asahi Kasei Corporation), sodium lactate (manufactured by Wako), sodium pyrrolidonecarboxylate (“AJIDEW” NL-50 manufactured by Ajinomoto Co., Inc.), glycerol (“concentrated glycerin” manufactured by Kao Corporation), and sorbitol (manufactured by Kao Corporation) were each dried under vacuum. The moisture level of the samples was measured by Karl Fischer moisture meter, the amount of water was determined, and the weight other than the moisture level was calculated ([1]). Thereafter, the samples were allowed to absorb moisture under the conditions of 65% RH, 25° C. for 14 days, and the weight was measured ([2]). Thereafter, the samples were dried under the conditions of 35% RH, 25° C. for 14 days, and the weight was measured ([3]).
• A(%)=([2]−[1])/[1]×100 was calculated and the samples were evaluated according to the following criteria. • ⊙: value of A is not less than 15% • ◯: value of A is not less than 12% and less than 15% • Δ: value of A is not less than 10% and less than 12% • ×: value of A is less than 10% [Water Retention Ability] • R(%)=[3]/[2]×100 was calculated and the samples were evaluated according to the following criteria. • ⊙: value of R is not less than 80% • ◯: value of R is not less than 60% and less than 80% • Δ: value of R is not less than 40% and less than 60% • ×: value of R is less than 40%

[3] = Evaluation of moisturizer: water retention ability; conditions: R(%)=[3]/[2]×100; after moisture absorption, dried at 35% RH, 25° C. for 14 days
Method: as §1
Decanoyl proline sodium obtained in Synthetic Example 2, betaine (“aminocoat” manufactured by Asahi Kasei Corporation), sodium lactate (manufactured by Wako), sodium pyrrolidonecarboxylate (“AJIDEW” NL-50 manufactured by Ajinomoto Co., Inc.), glycerol (“concentrated glycerin” manufactured by Kao Corporation), and sorbitol (manufactured by Kao Corporation) were each dried under vacuum. The moisture level of the samples was measured by Karl Fischer moisture meter, the amount of water was determined, and the weight other than the moisture level was calculated ([1]). Thereafter, the samples were allowed to absorb moisture under the conditions of 65% RH, 25° C. for 14 days, and the weight was measured ([2]). Thereafter, the samples were dried under the conditions of 35% RH, 25° C. for 14 days, and the weight was measured ([3]). […]

CCCCCCCCCC(=O)N1CCC[C@H]1C(=O)[O-].[Na+] [Example 1, decanoyl proline sodium salt]
decomposition rate of decanoyl proline Na ([1]; etidronate added to 0.1 wt %): 0.8% | decomposition rate of decanoyl proline Na ([1]; etidronate not added): 2.4% | hygroscopicity [2]: ⊙ (value of A is not less than 15%) | water retention ability [3]: ⊙ (value of R is not less than 80%)

C[N+](C)(C)CC(=O)O [compound 1, betaine]
hygroscopicity [2]: ⊙ (value of A is not less than 15%) | water retention ability [3]: Δ (value of R is not less than 40% and less than 60%)

CC(O)C(=O)[O-].[Na+] (stereo not drawn) [compound 2, sodium lactate]
hygroscopicity [2]: ⊙ (value of A is not less than 15%)

O=C1CCC(C(=O)[O-])N1.[Na+] (stereo not drawn) [compound 3, sodium pyrrolidonecarboxylate]
hygroscopicity [2]: ⊙ (value of A is not less than 15%)

OCC(O)CO [compound 4, glycerol]
hygroscopicity [2]: ⊙ (value of A is not less than 15%)
